Results from patent publication US20040106135A1, “Assay for PPAR ligand dependent gene modulation” (priority 2002, published 2004).

How the values were obtained:
HK-2 cells = test: Transcriptional profiling by DNA microarray, HK-2 cells; assay type: cell-based, human; details: 300 nM GW9578, 24 hours
Method: Points corresponding to PDK-4 and ADRP are highlighted in the plot. Points falling outside of the inner lines are changed by greater than 2-fold; those falling outside the outer lines by greater than 3-fold.
(§1) Expression profiling: Expression profiling of RNA samples was performed essentially as described (Lockhart et al., (1996) Nat. Biotechnol. 14:1675-80) using the Affymetrix human U95Av2 array. Briefly, RNA was isolated from 100 mm cell culture dishes, DNased, and 15 μg used as a template for double stranded cDNA synthesis according to standard protocols (Invitrogen). Reverse transcription was primed using a T7-modified oligo-dT primer (5-[…]-d(T)24-3′) (SEQ ID NO: 1). In vitro transcription was then performed on each double stranded cDNA synthesis, according to the manufacturer's (Enzo Diagnostics) instructions. The resultant cRNA products were purified using RNeasy columns (Qiagen), pooled, and quantitated spectrophotometrically. […]
(§2) Data Analysis: Affymetrix CEL files from GeneChip 4.0 (Affymetrix) were imported into Resolver 2.0 under an empirically derived Affymetrix error model (Rosetta Inpharmatics). […] Accordingly, the statistical significance (P-value) of a given expression data point takes into account the underlying error associated with the Affymetrix transcript abundance measurements as determined by this platform-specific error model. […]

Caki-1 cells = test: Transcriptional profiling by DNA microarray, Caki-1 cells; assay type: cell-based, human
Method: as §1, with “spectrophotometrically. For each sample, 20 μg of in vitro transcribed cRNA was fragmented by heating the sample to 94° C. in the presence of 40 mM Tris-acetate, pH 8.1, 100 mM potassium acetate, and 30 mM magnesium acetate.” for “spectrophotometrically.”
as §2

[1] = test system: hamster PDK-4 mRNA in liver; test: PDK-4 mRNA induction in liver of fat-fed hamsters; assay type: in vivo; details: single dose (GW9578 3 mg/kg, fenofibrate 100 mg/kg, gemfibrozil 500 mg/kg), 16 hour post-treatment
Method: FIG. 4A is a bar graph depicting the induction of PDK-4 mRNA in hamster liver by PPARα ligands. […] After 16 hours, the tissues were harvested, total RNA isolated and levels of hamster PDK-4 mRNA were detected by RT-PCR. The values are normalized to 18S rRNA levels. The mean and SEM of three individual animals are shown.
PDK-4 plays a critical role in regulating glucose metabolism by phosphorylating and inactivating the pyruvate dehydrogenase complex in response to increased fatty acid oxidation. […] To investigate the response of PDK-4 to fibrate treatment in vivo, in another aspect of the present invention the fat-fed hamster model was employed, which closely mimics the serum lipid profiles of humans than other rodent models (Sullivan et al., (1993) Lab. Anim. Sci. 43:575-578). […] These doses were previously shown to yield maximal effects on blood triglycerides in hamster. […] In hamster kidney, the basal levels of PDK-4 mRNA were approximately 10-fold higher than in the liver (FIG. 4B). […] Fibrates are effective treatments for lowering serum triglyceride levels. To verify that the doses used in this study were efficacious, blood triglyceride levels were monitored over a 48 hour time course.
Real-time PCR: Fluorescence-based real-time PCR was performed essentially as described (Abbaszade et al., (1999) J. Biol. Chem. 274:23443-23450). […] Taqman-based real-time PCR expression profiling was performed using 25 ng of each cDNA according to the manufacturer's (PE Biosystems) instructions with fluorescence being monitored in real-time with an ABI Prism 7700 (PE Biosystems). Relative expression levels were determined essentially as described (Gibson et al., (1996) Genome Res. 6:995-1001) using standard curves for each transcript. Relative abundance was then determined from these standard curves, subtracting mRNA levels obtained from negative control reactions performed in the absence of reverse transcriptase, and normalized to 18S rRNA levels. […]

CCCCCCCN(CCc1ccc(SC(C)(C)C(=O)O)cc1)C(=O)Nc1ccc(F)cc1F [GW9578, ureido-thioisobutyric acid]
Increase of ADRP transcript versus controls (HK-2 cells): approximately 4 fold
Increase of PDK-4 transcript versus controls (HK-2 cells): approximately 4 fold
Changes in gene expression in Caki-1 cells (Caki-1 cells): only minor changes
Induction of PDK-4 mRNA levels in the liver [1]: 200 fold
